This passage reports GI50 and TGI results from PubChem BioAssay (NCI).

Among the test systems are UACC-62 melanoma; K-562 leukemia; COLO 205 colon; M14 melanoma; SW-620 colon; IGROV1 ovarian; SNB-19 CNS; EKVX NSCLC; OVCAR-4 ovarian; SNB-75 CNS.
Common to all, as to experiment: DTP human tumour cell line panel, 48 h

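Dose response: 5 concentrations. Exposure: 48 h. Format: 96-well plates. Endpoint: linear interpolation; highest concentration if not reached. GI50 marks 50% less growth. TGI is the concentration that stops growth completely.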

For orientation: GI50 means the concentration giving 50% growth inhibition. The term TGI denotes the concentration giving total growth inhibition. A low value points to greater sensitivity of the cells. Regarding `CCN(CC)CC(C)Nc1ccc(C)c2sc3ccccc3c(=O)c12` (stereo not given), the GI50 in the assay on UACC-62 melanoma is 1.82 µM; with K-562 leukemia, 0.216 µM; with COLO 205 colon, 1.68 µM; in the assay with M14 melanoma it was 1.62 µM; with SW-620 colon, 3.33 µM; in the assay with IGROV1 ovarian it was 3.9 µM. Besides, the GI50 with SNB-19 CNS is 6.44 µM; in the assay on EKVX NSCLC, 7.86 µM; in the assay with OVCAR-4 ovarian, 7.61 µM; in the assay with SNB-75 CNS it was 2.2 µM. Further, the total growth inhibition concentration (TGI) in the assay with UACC-62 melanoma is 3.98 µM; with K-562 leukemia it was 3.15 µM; with COLO 205 colon, 3.77 µM; in the assay on M14 melanoma, 3.2 µM; in the assay with SW-620 colon, 13.7 µM; in the assay on IGROV1 ovarian, 17.1 µM. In addition, the TGI stood at 19.5 µM with SNB-19 CNS, 24.2 µM in the assay on EKVX NSCLC, 20.5 µM with OVCAR-4 ovarian and 10.8 µM in the assay with SNB-75 CNS.

Consider `CC(=O)O/C(C)=C\C(=O)O/N=C(\N)c1ccc(C)cc1`, for which the TGI was 56.7 µM in the assay with UACC-62 melanoma; 52.1 µM with K-562 leukemia; above 100 µM in the assay with COLO 205 colon; 93.1 µM in the assay on M14 melanoma; above 100 µM with SW-620 colon; above 100 µM in the assay on IGROV1 ovarian. Besides, the TGI in the assay on SNB-19 CNS was above 100 µM; in the assay with EKVX NSCLC, above 100 µM; in the assay on OVCAR-4 ovarian it was 64.5 µM; with SNB-75 CNS, 61 µM.
